Test results taken from ChEMBL document CHEMBL1201862, “PubChem BioAssay data set” (2004).
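48-hour exposure; five concentrations; linearly interpolated endpoints. GI50 = concentration required for 50% inhibition of growth.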 Active and inactive are the calls of the source. No stated cut-off is given here; in the data, active = GI50 up to about 1.1 µM and inactive = higher.

Columns and labels:
Assay in all cases: DTP human tumour cell line panel, 48 h
Malme-3M = tested on: Malme-3M
RPMI-8226 = tested on: RPMI-8226
LOX IMVI = tested on: LOX IMVI
NCI-H23 = tested on: NCI-H23
DMS-273 = tested on: DMS-273
SNB-75 = tested on: SNB-75
UACC-62 = tested on: UACC-62
DMS-114 = tested on: DMS-114
NCI-H226 = tested on: NCI-H226
M14 = tested on: M14
SK-MEL-2 = tested on: SK-MEL-2
HOP-62 = tested on: HOP-62
RXF 393 = tested on: RXF 393
HCT-116 = tested on: HCT-116
XF498 = tested on: XF498
DLD-1 = tested on: DLD-1
Hs-578T = tested on: Hs-578T
DU-145 = tested on: DU-145
T47D = tested on: T47D
BT-549 = tested on: BT-549

Compound | GI50 (Malme-3M) | GI50 (RPMI-8226) | GI50 (LOX IMVI) | GI50 (NCI-H23) | GI50 (DMS-273) | GI50 (SNB-75) | GI50 (UACC-62) | GI50 (DMS-114) | GI50 (NCI-H226) | GI50 (M14) | GI50 (SK-MEL-2) | GI50 (HOP-62) | GI50 (RXF 393) | GI50 (HCT-116) | GI50 (XF498) | GI50 (DLD-1) | GI50 (Hs-578T) | GI50 (DU-145) | GI50 (T47D) | GI50 (BT-549)
C=CCCCC(C#N)(c1ccccc1)N1CCCC1 (stereo unspecified) | > 100 µM (inactive) | > 100 µM (inactive) | > 100 µM (inactive) | > 100 µM (inactive) | > 100 µM (inactive) | > 100 µM (inactive) | > 100 µM (inactive) | > 100 µM (inactive) | > 100 µM (inactive) | > 100 µM (inactive) | > 100 µM (inactive) | > 100 µM (inactive) | > 100 µM (inactive) | > 100 µM (inactive) | – | – | – | – | – | –
Cc1cccc(C2=C/C(=C(\SS/C(C(=O)c3ccc(OCC(=O)O)c(Cl)c3Cl)=C3\C=C(c4cccc(C)c4)SS3)C(=O)c3ccc(OCC(=O)O)c(Cl)c3Cl)SS2)c1 | 25.5 µM (inactive) | 16.9 µM (inactive) | 4.69 µM (inactive) | 12.1 µM (inactive) | 31.3 µM (inactive) | 18.7 µM (inactive) | 13.8 µM (inactive) | 5.42 µM (inactive) | 12.1 µM (inactive) | 22.1 µM (inactive) | 19.1 µM (inactive) | 47.1 µM (inactive) | – | 10.2 µM (inactive) | 7.98 µM (inactive) | 27.4 µM (inactive) | – | – | – | –
O=C(Nc1cccc(O)c1)C(=O)C(C(=O)c1ccc(Cl)c(Cl)c1)C1OC(=O)c2ccccc21 (stereo unspecified) | 14.4 µM (inactive) | 16 µM (inactive) | 17.3 µM (inactive) | 16.6 µM (inactive) | 10.1 µM (inactive) | 17.8 µM (inactive) | 17.5 µM (inactive) | 12.1 µM (inactive) | 3.46 µM (inactive) | 20.2 µM (inactive) | 17.5 µM (inactive) | – | 20.9 µM (inactive) | 25.7 µM (inactive) | 10.9 µM (inactive) | – | – | – | – | –
CSC(=N)N1N=C2c3ccccc3CC[C@@H]2[C@@H]1c1ccccc1 | 12.8 µM (inactive) | 12.1 µM (inactive) | 14.5 µM (inactive) | 15.2 µM (inactive) | 15 µM (inactive) | – | 17 µM (inactive) | 13.3 µM (inactive) | 9.73 µM (inactive) | 13.2 µM (inactive) | 14.6 µM (inactive) | 15.7 µM (inactive) | 13.9 µM (inactive) | 4.8 µM (inactive) | 16.7 µM (inactive) | 12.9 µM (inactive) | – | – | – | –
COc1ccc(/C=C/C(C(=O)O)C(=O)O)cc1 | 69.8 µM (inactive) | 32.8 µM (inactive) | 16.1 µM (inactive) | > 100 µM (inactive) | > 100 µM (inactive) | – | 49.2 µM (inactive) | > 100 µM (inactive) | > 100 µM (inactive) | 75.7 µM (inactive) | > 100 µM (inactive) | > 100 µM (inactive) | – | > 100 µM (inactive) | > 100 µM (inactive) | > 100 µM (inactive) | – | – | – | –
CN1CCN(CCn2c3c4ccccc4ccc3c3oc(=O)c4ccccc4c32)CC1 | 15.1 µM (inactive) | 2.61 µM (inactive) | – | 5.83 µM (inactive) | – | 4.37 µM (inactive) | 3.56 µM (inactive) | 1.95 µM (inactive) | 16.6 µM (inactive) | 1.68 µM (inactive) | 13.5 µM (inactive) | 2.07 µM (inactive) | – | 1.88 µM (inactive) | – | 2.28 µM (inactive) | 4.79 µM (inactive) | > 10 µM (inactive) | > 10 µM (inactive) | –
Cc1cc2c(=O)cc(-c3ccncc3)oc2c(C(=O)O)c1C | > 100 µM (inactive) | > 100 µM (inactive) | > 100 µM (inactive) | > 100 µM (inactive) | > 100 µM (inactive) | > 100 µM (inactive) | > 100 µM (inactive) | – | > 100 µM (inactive) | – | > 100 µM (inactive) | > 100 µM (inactive) | > 100 µM (inactive) | > 100 µM (inactive) | > 100 µM (inactive) | – | – | – | – | –
Cc1cc(O)nc(CNC(=O)c2cccc(C(=O)NCc3cc(O)nc(C)n3)c2)n1 | > 100 µM (inactive) | > 100 µM (inactive) | > 100 µM (inactive) | > 100 µM (inactive) | > 100 µM (inactive) | > 100 µM (inactive) | > 100 µM (inactive) | > 100 µM (inactive) | > 100 µM (inactive) | > 100 µM (inactive) | > 100 µM (inactive) | > 100 µM (inactive) | > 100 µM (inactive) | > 100 µM (inactive) | – | > 100 µM (inactive) | – | – | – | –
Cc1ccc(NC(=O)CC(=O)n2nc(-c3ccccc3)c(/N=N/c3ccc(Cl)cc3)c2-c2ccccc2)cc1 | > 100 µM (inactive) | 23.3 µM (inactive) | 15.6 µM (inactive) | 58.1 µM (inactive) | 83.8 µM (inactive) | 22.6 µM (inactive) | > 100 µM (inactive) | 39.6 µM (inactive) | > 100 µM (inactive) | > 100 µM (inactive) | > 100 µM (inactive) | 50.6 µM (inactive) | – | 19.5 µM (inactive) | – | 15.3 µM (inactive) | – | – | – | –
Cc1cccc(C)c1NC(=O)CCCC(=O)C(C#N)c1ccc(Cl)cc1 (stereo unspecified) | > 100 µM (inactive) | > 100 µM (inactive) | > 100 µM (inactive) | > 100 µM (inactive) | > 100 µM (inactive) | 35.6 µM (inactive) | > 100 µM (inactive) | > 100 µM (inactive) | > 100 µM (inactive) | > 100 µM (inactive) | > 100 µM (inactive) | > 100 µM (inactive) | – | > 100 µM (inactive) | – | > 100 µM (inactive) | – | – | – | –
Cc1ccc(S(=O)(=O)OC(C=O)C(O)C(O)COC(c2ccccc2)(c2ccccc2)c2ccccc2)cc1 (stereo unspecified) | 19 µM (inactive) | 12.2 µM (inactive) | 19.1 µM (inactive) | – | 21.9 µM (inactive) | 14.9 µM (inactive) | 15.2 µM (inactive) | 17.6 µM (inactive) | 14.9 µM (inactive) | 16.1 µM (inactive) | 16.2 µM (inactive) | 16.9 µM (inactive) | 15.2 µM (inactive) | 16.4 µM (inactive) | 15.8 µM (inactive) | – | – | – | – | –
C[Si]12OCCCN(CCO1)CCO2 | > 100 µM (inactive) | > 100 µM (inactive) | – | > 100 µM (inactive) | > 100 µM (inactive) | > 100 µM (inactive) | > 100 µM (inactive) | > 100 µM (inactive) | – | – | > 100 µM (inactive) | – | > 100 µM (inactive) | > 100 µM (inactive) | – | > 100 µM (inactive) | – | – | – | –
C#C[C@]1(O)CCCC2=CC(=O)CC[C@@]21C | > 100 µM (inactive) | > 100 µM (inactive) | – | > 100 µM (inactive) | > 100 µM (inactive) | – | – | > 100 µM (inactive) | > 100 µM (inactive) | > 100 µM (inactive) | > 100 µM (inactive) | – | > 100 µM (inactive) | – | – | > 100 µM (inactive) | – | – | – | –
NC(CCSCCF)C(=O)O (stereo unspecified) | – | > 100 µM (inactive) | > 100 µM (inactive) | > 100 µM (inactive) | > 100 µM (inactive) | – | > 100 µM (inactive) | > 100 µM (inactive) | > 100 µM (inactive) | > 100 µM (inactive) | > 100 µM (inactive) | > 100 µM (inactive) | – | > 100 µM (inactive) | – | – | – | – | – | –
CCOC(=O)/C(=C/c1ccccc1Br)P(=O)(OCC)OCC | 1.84 µM (inactive) | 0.815 µM (active) | 1.39 µM (inactive) | 1.73 µM (inactive) | 1.26 µM (inactive) | 1.48 µM (inactive) | 1.24 µM (inactive) | – | 3.07 µM (inactive) | 1.54 µM (inactive) | 1.84 µM (inactive) | 3.72 µM (inactive) | 1.17 µM (inactive) | 3.15 µM (inactive) | 1.93 µM (inactive) | 1.29 µM (inactive) | – | – | – | –
CN(CCCCN1CCCC1)CCCCN(C)C(=O)Cc1ccc(Cl)c(Cl)c1 | 17.9 µM (inactive) | 5.33 µM (inactive) | 10.6 µM (inactive) | 17.9 µM (inactive) | – | 15 µM (inactive) | 3.66 µM (inactive) | – | 23.7 µM (inactive) | 17.2 µM (inactive) | 6.07 µM (inactive) | 16.3 µM (inactive) | 11.7 µM (inactive) | 14.3 µM (inactive) | – | – | 19.5 µM (inactive) | 25.2 µM (inactive) | 20.2 µM (inactive) | 18.5 µM (inactive)
Cn1cnc([N+](=O)[O-])c1Sc1nnnn1-c1ccccc1 | 7.76 µM (inactive) | 11.4 µM (inactive) | 5.65 µM (inactive) | 19.4 µM (inactive) | 15 µM (inactive) | 16.4 µM (inactive) | 13.9 µM (inactive) | 15.5 µM (inactive) | 17.3 µM (inactive) | 10.9 µM (inactive) | 14.1 µM (inactive) | > 100 µM (inactive) | – | 11.3 µM (inactive) | 11.6 µM (inactive) | 6.68 µM (inactive) | – | – | – | –
CCCCCC(=O)N[C@H]1CCc2cc(O)c(O)c(O)c2-c2ccc(SC)c(=O)cc21 | > 80.5 µM (inactive) | 70.5 µM (inactive) | 23.1 µM (inactive) | 21.6 µM (inactive) | 32.5 µM (inactive) | 32.2 µM (inactive) | 31.6 µM (inactive) | 15.5 µM (inactive) | 28.2 µM (inactive) | 19 µM (inactive) | 33 µM (inactive) | 47 µM (inactive) | 38.9 µM (inactive) | 18.8 µM (inactive) | – | 19.6 µM (inactive) | – | – | – | –
C=CC(C1=CC(=O)C(OC)=CC1=O)c1ccccc1 (stereo unspecified) [4-METHOXYDALBERGIONE] | 14.5 µM (inactive) | 9.64 µM (inactive) | 16.2 µM (inactive) | 16.1 µM (inactive) | – | 18.1 µM (inactive) | 14.6 µM (inactive) | – | 17.1 µM (inactive) | 17.9 µM (inactive) | 12.6 µM (inactive) | 16.6 µM (inactive) | 15.6 µM (inactive) | 8.81 µM (inactive) | – | – | 17.8 µM (inactive) | 16.5 µM (inactive) | 2.65 µM (inactive) | 15.5 µM (inactive)
